Source: patent US11512085B2, “Heteroaryl compound having drug activity” (SHANGHAI DUDE MEDICAL TECHNOLOGY CO., LTD, priority 2017, dated 2022)

Key:
p-PLCγ/t-PLCγ = test: Western blotting of p-PLCγ/t-PLCγ in anti-IgG stimulated DOHH2 cells; type: cell-based; details: DOHH2 cells, 5, 100, 2000 nM, 1 h, anti-IgG stimulation
Protocol: Biological Embodiment 4: Analysis of Influences of Test Compounds on p-Btk/t-Btk, p-PLCγ/t-PLCγ and p-Erk/t-Erk Expression Levels of DOHH2 Cells by Virtue of Western Blotting
1) DOHH2 cells on a logarithmic phase were collected;
2) a cell concentration was adjusted to a needed concentration;
3) 2 ml of cell suspension was added into a 6-well plate for performing culture, three different concentrations, that is, 5 nM, 100 nM and 2000 nM, of test samples were respectively set, and each concentration was repeated once;
4) test samples were added into plate wells, and DMSO served as control, wherein a final concentration of the DMSO was 0.1%;
5) culture was performed for 1 h; and […]
6. protein extraction and quantification […]
5) a protein concentration was determined by using Pierce™ BCA Protein Assay Kit; and
6) according to BCA protein quantification results, all samples were diluted to the same final concentration by adding 4×LDS sample buffer and 10× sample reducing agent into the RIPA buffer solution, and the solution was heated at 100° C. for 10 min. […]
10) chemiluminiscence was detected by Tanon 5200 multi.
7. Quantification of strip intensity
Intensity of each strip was quantified by using Image quant densitometry software. […]

SD rats = test: Single dose toxicity test in SD rats; type: in vivo
Protocol: Biological Embodiment 6: Single Dose Toxicity Test
During the experiment, all the animals were subjected to detailed clinical observation once (2 hours after drug administration) on the Day 1 and once every day on Day 2-14; the animals were weighed on the day of animal grouping, on the day of drug administration (before drug administration), Day 4, 7, 10 and 13 after drug administration and on the day of dissection, and weights were recorded; food consumption per cage was weighed within 24 hours on Day 2, 6, 9 and 13 in the experiment and recorded; and all live animals were subjected to gross anatomy examination on Day 15.
1. Preparation of Test and Control Products
a solvent control group: 30 ml of solvents (0.5% MC (methylcellulose), 0.4% of cremophor EL and 0.1% of sodium lauryl sulfate) were sucked into a suitable container, the pH value was measured as 7, and a colorless clarified solution was obtained.
(§1) Compound 6 (400 mg/kg): 1507.1 mg of the compound 6 was weighed into a suitable container, solvents (0.5% MC (methylcellulose), 0.4% cremophor EL and 0.1% sodium lauryl sulfate) were added into the container to reach a constant volume of 30 ml, ultrasonic treatment was performed for 20 minutes, stirring was performed for 15 minutes, a mixing instrument was used for 5 minutes, the pH value was measured as 7, and white suspension was obtained.
as §1, with “(1000” for “(400”, “3765.5” for “1507.1”, “25” for “20”, “21” for “15”, “obtained. […]” for “obtained.”

LynA = LynA (Homo sapiens, UniProt P07948); test: Btk selectivity over LynA (same kinase method, Btk replaced); type: biochemical; details: ratio of IC50 values
Protocol: Other kinases (e.g., inhibitory activity of Lck and LynA is determined by replacing the Btk with various kinases and performing operations the same as that in the above method).

Chain of LynA (P07948 whole entry): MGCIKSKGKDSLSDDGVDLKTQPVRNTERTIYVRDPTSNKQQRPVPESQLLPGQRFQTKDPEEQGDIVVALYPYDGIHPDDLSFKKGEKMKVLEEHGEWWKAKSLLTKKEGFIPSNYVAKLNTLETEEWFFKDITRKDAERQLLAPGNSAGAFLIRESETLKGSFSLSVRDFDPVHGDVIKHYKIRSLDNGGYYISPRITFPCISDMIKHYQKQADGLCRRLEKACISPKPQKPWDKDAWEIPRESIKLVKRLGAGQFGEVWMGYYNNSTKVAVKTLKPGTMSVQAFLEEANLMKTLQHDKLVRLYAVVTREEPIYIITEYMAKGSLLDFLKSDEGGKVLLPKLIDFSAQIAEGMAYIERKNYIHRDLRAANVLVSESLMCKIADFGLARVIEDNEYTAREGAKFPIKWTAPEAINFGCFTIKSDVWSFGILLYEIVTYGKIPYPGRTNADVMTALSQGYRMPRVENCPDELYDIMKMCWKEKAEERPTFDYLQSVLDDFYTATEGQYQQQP

## C=CC(=O)NN1CCCC(n2nc(-c3ccc(Oc4ccccc4)cc3)c3c(N)ncnc32)C1 (centres unmarked) [Embodiment 6, N-(3-(4-amino-3-(4-phenoxyphenyl)-1H-pyrazolo[3,4-D]pyrimidine-1-yl)-1-piperidyl)-acrylamide]
p-PLCγ/t-PLCγ
  relative level of p-PLCγ/t-PLCγ: obviously decreased
SD rats; SD rats, oral, once, 0, 400, 1000, 2000 mg/kg
  Maximum tolerance dosage: 2000 mg/kg
SD rats; rat, in vivo
  Gross anatomy: no abnormality
  Results (single dose toxicity): No animal died; all tissues
LynA
  LynA[IC50]/Btk[IC50]: 137
